Reference: patent US7820672B2, “Indolylmaleimide derivatives” (Novartis AG, priority 2003, dated 2010)

Assays:
[1] = tested on: spleen cells from CBA and BALB/c mice; assay: Allogeneic mixed lymphocyte reaction (MLR); assay type: cell-based; details: Mus musculus, two-way MLR, 3H-thymidine incorporation
Protocol: The two-way MLR is performed according to standard procedures (J. Immunol. Methods, 1973, 2, 279 and Meo T. et al., Immunological Methods, New York, Academic Press, 1979, 227-39). Briefly, spleen cells from CBA and BALB/c mice (1.6×10^5 cells from each strain per well in flat bottom tissue culture microtiter plates, 3.2×10^5 in total) are incubated in RPMI medium containing 10% FCS, 100 U/ml penicillin, 100 μg/ml streptomycin (Gibco BRL, Basel, Switzerland), 50 μM 2-mercaptoethanol (Fluka, Buchs, Switzerland) and serially diluted compounds. Seven three-fold dilution steps in duplicates per test compound are performed. After four days of incubation 1 μCi ^3H-thymidine is added. Cells are harvested after an additional five-hour incubation period, and incorporated ^3H-thymidine is determined according to standard procedures. Background values (low control) of the MLR are the proliferation of BALB/c cells alone. Low controls are subtracted from all values. High controls without any sample are taken as 100% proliferation. Percent inhibition by the samples is calculated, and the concentrations required for 50% inhibition (IC50 values) are determined.

Human recombinant PKCα = molecular target: T1, Human recombinant PKCα (Homo sapiens, UniProt P17252); assay: Protein Kinase Cα assay; assay type: biochemical
T1 construct: purchased Oxford Biomedical Research
Protocol: (§1) The compounds of formula I are tested for their activity on different PKC isoforms according to a published method (D. Geiges et al. Biochem. Pharmacol. 1997; 53:865-875) The assay is performed in a 96-well polypropylene microtiterplate (Costar 3794) that has been previously siliconized with Sigmacote (Sigma SL-2). The reaction mixture (50 μl) contains 10 μl of the relevant PKC isozyme together with 25 μl of the test compound and 15 μl of a mix solution that contains 200 μg/ml protamine sulfate, 10 mM Mg(NO3)2, 10 μM ATP (Boehringer 519987) and 3750 Bq of ^33P-ATP (Hartmann Analytic SFC301, 110 TBq/mmol) in 20 mM Tris-buffer pH 7.4+0.1% BSA. Incubation is performed for 15 min at 32° C. in a microtiterplate shaking incubator (Biolabo Scientific Instruments). Reaction is stopped by adding 10 μl of 0.5 M Na2EDTA, pH 7.4. 50 μl of mixture are pipetted onto a pre-wetted phosphocellulose paper (Whatmann 3698-915) under gentle pressure. Non-incorporated ATP is washed away with 100 μl bi-dist H2O. The paper is washed twice in 0.5% H3PO4 for 15 min followed by 5 min in EtOH. Thereafter the paper is dryed and placed in an omnifilter (Packard 6005219), and overlayed with 10 μl/well of Microscint-O (Packard 6013611) before counting in a Topcount radioactivity counter (Packard). IC50 measurement is performed on a routine basis by incubating a serial dilution of inhibitor at concentrations ranging between 1-1000 μM according to the method described above. IC50 value are calculated from the graph by sigmoidal curve fitting.
Human recombinant PKCα was obtained from Oxford Biomedical Research and is used under the assay conditions as described under Section A.1 above. In this assay, compounds of formula I inhibit PKCα with an IC50≦1 μM.

GSK-3β = GSK-3β (Homo sapiens, UniProt P49841); assay: Inhibition of GSK-3β; assay type: biochemical
Chain of GSK-3β (P49841 whole entry, species assumed): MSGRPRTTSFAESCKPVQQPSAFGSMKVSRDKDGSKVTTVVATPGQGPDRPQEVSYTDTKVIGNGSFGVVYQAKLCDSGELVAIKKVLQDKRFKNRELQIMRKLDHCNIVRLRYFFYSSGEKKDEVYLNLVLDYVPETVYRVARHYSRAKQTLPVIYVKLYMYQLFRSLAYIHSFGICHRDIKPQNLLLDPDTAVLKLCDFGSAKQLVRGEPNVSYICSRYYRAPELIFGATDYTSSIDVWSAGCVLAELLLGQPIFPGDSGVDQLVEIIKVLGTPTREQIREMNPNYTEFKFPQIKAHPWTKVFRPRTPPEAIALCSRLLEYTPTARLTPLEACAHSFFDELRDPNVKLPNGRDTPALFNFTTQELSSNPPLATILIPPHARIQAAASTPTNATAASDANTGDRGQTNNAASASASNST
Protocol: The GSK-3β bidding assay is performed in 50 μl reactions in 96 well polypropylene plate, each reaction containing 20 mM magnesium chloride, 40 μM ATP, 2 mM DTT, 88.5 μM biotinylated and phosphorylated CREB-peptide substrate (biotin-KRREILSRRPS(PO4)YR—OH; Q. M. Wang et al., J. Biol. Chem. 269, 14566-14574, 1994), [γ-^33P]ATP (1 μCi) and 2 μl of the compound to be tested in DMSO (various concentrations). 15 μl of GSK-3β (various concentrations) is added and the mixture is incubated at 30° C. for 1 hour. The reaction is stopped by transferring 25 μl of the mixture to a phosphocellulose plate containing 130 μl of 1.85% phosphoric acid. The free radionucleotides in the membrane are washed off under vacuum with 1.85% phosphoric acid (5 times). After the last wash, the plate is transferred to an adaptor plate and 50 μl of scintillation cocktail (Microscint-20, Packard, cat. # 20-133) is added to each well and the amount of radioactivity is counted in a top counter. Compounds of formula I are active in this assay.

Human recombinant PKCε = molecular target: T2, Human recombinant PKCε (Homo sapiens, UniProt Q02156); assay: Protein Kinase Cε assay; assay type: biochemical; details: read-out: IC50 in Protein Kinase Cε assay (sentence prints PKCδ)
T2 construct: purchased Oxford Biomedical Research
T2 sequence (Q02156 1-737): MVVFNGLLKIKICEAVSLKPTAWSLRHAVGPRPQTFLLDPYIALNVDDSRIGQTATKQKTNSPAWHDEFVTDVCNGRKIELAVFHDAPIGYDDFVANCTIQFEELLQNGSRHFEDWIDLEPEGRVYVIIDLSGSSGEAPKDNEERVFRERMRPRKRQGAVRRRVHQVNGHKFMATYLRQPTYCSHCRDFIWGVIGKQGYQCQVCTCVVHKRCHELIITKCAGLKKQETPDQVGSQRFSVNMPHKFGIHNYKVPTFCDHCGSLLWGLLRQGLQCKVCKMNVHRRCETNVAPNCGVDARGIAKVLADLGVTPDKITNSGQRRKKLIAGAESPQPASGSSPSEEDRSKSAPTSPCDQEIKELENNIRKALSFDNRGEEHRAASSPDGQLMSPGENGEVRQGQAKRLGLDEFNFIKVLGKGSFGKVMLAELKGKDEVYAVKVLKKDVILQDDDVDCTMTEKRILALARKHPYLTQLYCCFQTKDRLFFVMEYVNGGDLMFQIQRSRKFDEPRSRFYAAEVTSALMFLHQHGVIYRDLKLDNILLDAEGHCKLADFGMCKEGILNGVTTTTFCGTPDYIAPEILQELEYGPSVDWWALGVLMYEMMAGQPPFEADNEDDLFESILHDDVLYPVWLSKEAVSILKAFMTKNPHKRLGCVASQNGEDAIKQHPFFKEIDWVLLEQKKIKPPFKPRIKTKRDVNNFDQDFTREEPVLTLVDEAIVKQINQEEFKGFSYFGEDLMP
Protocol: as §1, with “IC50 measurement is performed on a routine basis by incubating a serial dilution of inhibitor at concentrations ranging between 1-1000 μM according to the method described above.” left out, “fitting. […]” for “fitting.”

[2] = tested on: Jurkat cells transfected with a human interleukin-2 promoter/reporter gene construct; assay: CD28 costimulation assay (IL-2 promoter/luciferase reporter); assay type: cell-based; details: stimulated Jurkat cells, luciferase reporter
Protocol: The assay is performed with Jurkat cells transfected with a human interleukin-2 promoter/reporter gene construct as described by Baumann G et al. in Transplant Proc. 1992; 24:43-8, the β-galactosidase reporter gene being replaced by the luciferase gene (de Wet J., et al., Mol. Cell Biol. 1987, 7(2), 725-737). Cells are stimulated by solid phase-coupled antibodies or phorbol myristate acetate (PMA) and the Ca^++ ionophore ionomycin as follows. For antibody-mediated stimulation Microlite TM1 microtiter plates (Dynatech) are coated with 3 μg/ml goat anti-mouse IgG Fc antibodies (Jackson) in 55 μl phosphate-buffered saline (PBS) per well for three hours at RT. Plates are blocked after removing the antibodies by incubation with 2% bovine serum albumin (BSA) in PBS (300 μl per well) for 2 hours at RT. After washing three times with 300 μl PBS per well, 10 ng/ml anti-T cell receptor antibodies (WT31, Becton & Dickinson) and 300 ng/ml anti-CD28 antibodies (15E8) in 50 μl 2% BSA/PBS are added as stimulating antibodies and incubated overnight at 4° C. Finally the plates are washed three times with 300 μl PBS per well. Seven three-fold serial dilutions of test compounds in duplicates in assay medium (RPMI 1640/10% fetal calf serum (FCS) containing 50 μM 2-mercaptoethanol, 100 units/ml penicillin and 100 μg/ml streptomycin) are prepared in separate plates, mixed with transfected Jurkat cells (clone K22 290_H23) and incubated for 30 minutes at 37° C. in 5% CO2. […] After incubation for 5.5 hours at 37° C. in 5% CO2, the level of luciferase is determined by bioluminescence measurement. […] Luciferase activity is assessed with a bioluminescence reader (Labsystem, Helsinki, Finland) after automatic addition of 50 μl per well luciferase reaction buffer containing 20 mM Tricine, 1.07 mM (MgCO3)4Mg(OH)2×5H2O, 2.67 mM MgSO4, 0.1 mM EDTA, 33.3 mM DTT, 270 μM coenzyme A, 470 μM luciferin (Chemie Brunschwig AG), 530 μM ATP, pH 7.8. […] The inhibition obtained in the presence of a test compound is calculated as percent inhibition of the high control. […]

Human recombinant PKCθ = Human recombinant PKCθ (Homo sapiens, UniProt Q04759); assay: Protein Kinase C θ assay; assay type: biochemical
Chain of Human recombinant PKCθ (Q04759 whole entry): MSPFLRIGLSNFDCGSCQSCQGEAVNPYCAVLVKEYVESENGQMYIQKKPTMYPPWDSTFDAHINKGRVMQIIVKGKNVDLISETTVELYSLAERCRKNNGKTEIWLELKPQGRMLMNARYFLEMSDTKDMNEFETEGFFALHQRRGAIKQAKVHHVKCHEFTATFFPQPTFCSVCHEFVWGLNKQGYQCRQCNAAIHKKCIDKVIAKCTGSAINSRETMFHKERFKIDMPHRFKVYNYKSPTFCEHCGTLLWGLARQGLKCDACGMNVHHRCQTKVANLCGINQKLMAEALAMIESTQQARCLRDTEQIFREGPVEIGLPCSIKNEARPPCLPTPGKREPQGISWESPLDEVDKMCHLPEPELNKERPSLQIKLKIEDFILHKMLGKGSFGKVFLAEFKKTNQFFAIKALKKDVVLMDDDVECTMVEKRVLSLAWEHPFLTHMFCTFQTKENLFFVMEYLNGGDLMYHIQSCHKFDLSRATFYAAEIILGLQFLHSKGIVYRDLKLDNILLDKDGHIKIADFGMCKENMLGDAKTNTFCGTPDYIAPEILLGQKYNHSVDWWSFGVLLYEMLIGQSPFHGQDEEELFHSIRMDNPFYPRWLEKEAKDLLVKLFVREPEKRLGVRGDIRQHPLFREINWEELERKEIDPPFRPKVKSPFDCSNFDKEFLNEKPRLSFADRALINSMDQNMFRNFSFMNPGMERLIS
Protocol: as §1
Human recombinant PKCθ is used under the assay conditions as described above. In this assay, compounds of formula I inhibit PKC θ with an IC50≦1 μM.

Human recombinant PKCβ1 = molecular target: T3, Human recombinant PKCβ1 (Homo sapiens, UniProt P05771); assay: Protein Kinase Cβ1 assay; assay type: biochemical
T3 construct: purchased Oxford Biomedical Research
T3 sequence (P05771 whole entry): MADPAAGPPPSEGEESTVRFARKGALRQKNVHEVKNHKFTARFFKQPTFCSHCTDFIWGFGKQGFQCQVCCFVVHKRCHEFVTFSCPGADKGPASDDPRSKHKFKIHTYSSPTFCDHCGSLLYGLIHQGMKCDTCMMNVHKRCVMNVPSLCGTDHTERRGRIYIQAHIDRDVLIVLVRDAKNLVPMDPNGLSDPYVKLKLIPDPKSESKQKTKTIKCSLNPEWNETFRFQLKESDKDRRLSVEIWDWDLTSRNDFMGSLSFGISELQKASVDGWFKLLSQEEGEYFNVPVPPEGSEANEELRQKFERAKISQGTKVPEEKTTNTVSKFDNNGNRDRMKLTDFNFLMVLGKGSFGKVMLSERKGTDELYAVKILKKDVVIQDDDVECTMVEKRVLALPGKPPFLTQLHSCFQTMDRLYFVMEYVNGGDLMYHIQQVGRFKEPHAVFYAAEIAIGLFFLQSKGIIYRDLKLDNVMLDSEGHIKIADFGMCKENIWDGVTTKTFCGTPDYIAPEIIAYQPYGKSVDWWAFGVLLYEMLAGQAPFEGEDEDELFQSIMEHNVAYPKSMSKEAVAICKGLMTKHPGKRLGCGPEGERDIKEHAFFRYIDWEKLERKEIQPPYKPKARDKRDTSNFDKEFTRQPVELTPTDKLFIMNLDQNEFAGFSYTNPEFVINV
Protocol: as §1
Human recombinant PKCβ1 was obtained from Oxford Biomedical Research and is used under the assay conditions as described under Section A.1 above. In this assay, compounds of formula I inhibit PKCβ1 with an IC50≦1 μM.

Human recombinant PKCδ = molecular target: T4, Human recombinant PKCδ (Homo sapiens, UniProt Q05655); assay: Protein Kinase Cδ assay; assay type: biochemical
T4 construct: purchased Oxford Biomedical Research
T4 sequence (Q05655 whole entry): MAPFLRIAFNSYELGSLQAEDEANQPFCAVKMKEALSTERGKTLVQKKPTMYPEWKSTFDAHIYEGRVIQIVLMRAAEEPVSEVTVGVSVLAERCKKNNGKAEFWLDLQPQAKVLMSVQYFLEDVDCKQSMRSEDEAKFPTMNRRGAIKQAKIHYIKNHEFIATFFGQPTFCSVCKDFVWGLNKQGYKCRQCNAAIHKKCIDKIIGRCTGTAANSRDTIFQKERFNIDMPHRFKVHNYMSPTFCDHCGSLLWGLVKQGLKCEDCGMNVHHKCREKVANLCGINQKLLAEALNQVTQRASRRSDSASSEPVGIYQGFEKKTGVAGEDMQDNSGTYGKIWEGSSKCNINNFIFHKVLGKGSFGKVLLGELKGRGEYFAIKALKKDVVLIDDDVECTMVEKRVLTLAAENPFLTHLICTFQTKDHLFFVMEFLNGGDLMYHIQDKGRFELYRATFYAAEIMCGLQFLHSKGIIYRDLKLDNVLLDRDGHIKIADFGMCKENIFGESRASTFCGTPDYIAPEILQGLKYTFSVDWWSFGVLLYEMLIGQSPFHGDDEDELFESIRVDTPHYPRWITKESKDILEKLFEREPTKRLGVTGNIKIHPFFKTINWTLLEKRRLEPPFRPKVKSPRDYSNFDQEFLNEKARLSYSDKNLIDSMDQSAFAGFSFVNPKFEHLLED
Protocol: as §1, with “IC50 measurement is performed on a routine basis by incubating a serial dilution of inhibitor at concentrations ranging between 1-1000 μM according to the method described above.” left out, “fitting. […]” for “fitting.”

lymph node enlargement = assay: Graft v. host model; assay type: in vivo, rat; details: days 0-3, lymph nodes removed day 7
Protocol: Spleen cells (2×10^7) from Wistar/F rats are injected subcutaneously into the right hind footpad of (Wistar/F×Fischer 344)F1 hybrid rats. The left footpad is left untreated. The animals are treated with the test compounds on 4 consecutive days (0-3). The popliteal lymph nodes are removed on day 7, and the weight differences between two corresponding lymph nodes are determined. The results are expressed as the inhibition of lymph node enlargement (given in percent) comparing the lymph node weight differences in the experimental groups to the weight difference between the corresponding lymph nodes from a group of animals left untreated with a test compound. In this assay, an inhibition of 100% is obtained with compound of Example 1 or 10 when administered at a dose of 30 or 10 mg/kg bid, respectively.

Human recombinant PKCη = molecular target: T5, Human recombinant PKCη (Homo sapiens, UniProt P24723); assay: Protein Kinase Cη assay; assay type: biochemical
T5 construct: purchased PanVera
T5 sequence (P24723 whole entry): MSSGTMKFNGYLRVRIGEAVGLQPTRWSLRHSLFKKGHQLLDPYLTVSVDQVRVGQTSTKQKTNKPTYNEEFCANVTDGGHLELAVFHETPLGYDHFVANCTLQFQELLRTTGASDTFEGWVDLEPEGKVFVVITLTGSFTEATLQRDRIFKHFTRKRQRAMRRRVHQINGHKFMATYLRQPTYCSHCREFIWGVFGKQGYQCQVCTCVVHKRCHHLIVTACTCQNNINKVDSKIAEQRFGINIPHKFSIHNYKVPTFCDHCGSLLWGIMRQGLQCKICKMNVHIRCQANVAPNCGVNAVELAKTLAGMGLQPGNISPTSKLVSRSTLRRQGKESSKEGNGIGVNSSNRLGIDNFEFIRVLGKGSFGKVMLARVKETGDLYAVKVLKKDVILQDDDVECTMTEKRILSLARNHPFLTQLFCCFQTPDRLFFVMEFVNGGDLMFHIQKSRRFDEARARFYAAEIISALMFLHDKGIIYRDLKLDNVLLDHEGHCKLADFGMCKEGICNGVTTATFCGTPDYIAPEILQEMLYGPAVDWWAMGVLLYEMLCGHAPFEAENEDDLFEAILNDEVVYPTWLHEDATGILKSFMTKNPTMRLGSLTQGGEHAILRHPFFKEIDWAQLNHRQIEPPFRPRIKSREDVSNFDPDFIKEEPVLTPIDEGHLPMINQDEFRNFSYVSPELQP
Protocol: as §1, with “IC50 measurement is performed on a routine basis by incubating a serial dilution of inhibitor at concentrations ranging between 1-1000 μM according to the method described above.” left out, “fitting. […]” for “fitting.”

Row | IC50 [1] | IC50 (Human recombinant PKCα) | IC50 (GSK-3β) | IC50 (Human recombinant PKCε) | IC50 [2] | IC50 (Human recombinant PKCθ) | IC50 (Human recombinant PKCβ1) | IC50 (Human recombinant PKCδ) | IC50 (Human recombinant PKCη) | Compound | inhibition of lymph node enlargement (lymph node enlargement; 30 mg/kg bid) | inhibition of lymph node enlargement (lymph node enlargement; 10 mg/kg bid)
1 | 28.8 nM | 2.9 nM | 18 nM | 14.7 nM | 13 nM | 5.4 nM | 5.9 nM | 21 nM | 15.3 nM | CN1CCN(c2ccc(C(F)(F)F)c(C3=C(c4c[nH]c5ccccc45)C(=O)NC3=O)n2)CC1 [Example 1, 3-(1H-Indol-3-yl)-4-[6-(4-methyl-piperazin-1-yl)-3-tifluoromethyl-pyridin-2-yl]-pyrrole-2,5-dione] | 100% | 
2 |  |  |  |  |  | 5.8 nM |  |  |  | CN1CCN(c2ccc(Cl)c(C3=C(c4c[nH]c5ccccc45)C(=O)NC3=O)n2)CC1 [Example 10] |  | 100%
3 | 285 nM | 6.3 nM |  |  | 46.7 nM |  | 13.2 nM |  |  | CN(C)Cc1cc2c(C3=C(c4cn(C)c5ccccc45)C(=O)NC3=O)cccc2[nH]1 [Example 39] |  | 
4 | 32.5 nM | 7.5 nM | 25 nM | 7.6 nM | 28.3 nM | 9.3 nM | 14.9 nM | 29.5 nM | 15 nM | Cc1cccc2c(C3=C(c4c(Cl)ccc5[nH]c(CN(C)C)cc45)C(=O)NC3=O)c[nH]c12 [Example 41] |  | 
